Like-named read-outs stand apart in the source and are kept apart here.
Key:
[1] = target: His6-ERα298-554 Y537S mutant (ERα ligand-binding domain) (Homo sapiens (Human), UniProt P03372, Y537S); experiment: Test A: biochemical antagonist activity, LanthaScreen TR-FRET ERα coactivator assay, Y537S mutant; conditions: read-out: Antagonism Y537S IC50
Outline: (§1)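 IC50 values come from a 4-parameter logistic fit of the 520:495 nm TR-FRET ratio after overnight room-temperature incubation. The mix held 0.5 nM ERα 298–554 LBD, Tb-labelled anti-His6 antibody, 250 nM PGC1a peptide and 3 nM or 10 nM estradiol, pH 7.4 phosphate buffer with DTT.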

[2] = test system: MCF7 cells expressing mutant estrogen receptor Asp 538 Gly; experiment: Test B: cell proliferation/viability assay (CellTiter-Glo) on MCF7 Asp 538 Gly mutant; format: cell-based; conditions: MCF7 cells expressing ER Asp 538 Gly mutant, 7 days of compound exposure, read-out: proliferation MCF7 D538G IC50
Outline: (§2)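 Compound exposure lasted 7 days (3-0.000001 μM final, 9 points) in phenol red-free MEM with 5% charcoal dextran-stripped FBS. The mutant lines grew without estradiol. Luminescent signal, minus medium-only background, was expressed as percent of untreated cells.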

[3] = test system: MCF7 cells expressing mutant estrogen receptor Tyr 537 Ser; experiment: Test B: cell proliferation/viability assay (CellTiter-Glo) on MCF7 Tyr 537 Ser mutant; format: cell-based; conditions: MCF7 cells expressing ER Tyr 537 Ser mutant, 7 days of compound exposure, read-out: proliferation MCF7 Y537S IC50
Outline: as §2

[4] = target: His6-ERα298-554 D538G mutant (ERα ligand-binding domain) (Homo sapiens (Human), UniProt P03372, D538G); experiment: Test A: biochemical antagonist activity, LanthaScreen TR-FRET ERα coactivator assay, D538G mutant; conditions: read-out: Antagonism D538G IC50
Outline: as §1

[5] = test system: MCF7 cells (breast tumor cells) WT; experiment: Test B: cell proliferation/viability assay (CellTiter-Glo) on MCF7 WT; format: cell-based; conditions: 7 days of compound exposure
Outline: as §2

[6] = target: His6-ERα298-554 WT (ERα ligand-binding domain) (Homo sapiens (Human), UniProt P03372); experiment: Test A: biochemical antagonist activity, LanthaScreen TR-FRET ERα coactivator assay, WT; conditions: read-out: Antagonism WT IC50
Outline: as §1

ERα in MCF7 cells = ERα in MCF7 cells (Homo sapiens (Human), UniProt P03372); experiment: Test C: estrogen receptor degradation activity, ERα in cell western assay in MCF7 cells; format: cell-based; conditions: for DC50: 4 hours post compound addition, ERα in cell western, read-out: Degradation IC50; for % Degradation at 3 μM: 4 hours, relative to fulvestrant
Outline: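 Steps: seed MCF7 in phenol red-free medium containing 5% charcoal-dextran stripped FBS; next day add compound, final 3–0.000018 μM; after 4 h fix with 5% formalin plus 0.1% Triton; stain ERα overnight, then secondary at 37 °C for 60 min with Syto-64 at 2 μM; scan green and red intensities.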

[7] = asterisk (*): protocol using 10 nM estradiol

His6-ERα298-554 WT (ERα ligand-binding domain), sequence (P03372 298-554): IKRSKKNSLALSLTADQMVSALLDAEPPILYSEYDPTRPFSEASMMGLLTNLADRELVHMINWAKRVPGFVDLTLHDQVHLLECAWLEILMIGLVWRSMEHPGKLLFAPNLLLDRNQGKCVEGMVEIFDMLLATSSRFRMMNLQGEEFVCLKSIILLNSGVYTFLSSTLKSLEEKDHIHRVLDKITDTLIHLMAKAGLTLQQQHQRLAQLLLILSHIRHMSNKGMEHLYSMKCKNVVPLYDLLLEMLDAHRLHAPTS
His6-ERα298-554 D538G mutant (ERα ligand-binding domain), sequence (P03372 298-554 D538G): as the sequence (P03372 298-554) above, with D241G counted along it
ERα in MCF7 cells, sequence (P03372 whole entry): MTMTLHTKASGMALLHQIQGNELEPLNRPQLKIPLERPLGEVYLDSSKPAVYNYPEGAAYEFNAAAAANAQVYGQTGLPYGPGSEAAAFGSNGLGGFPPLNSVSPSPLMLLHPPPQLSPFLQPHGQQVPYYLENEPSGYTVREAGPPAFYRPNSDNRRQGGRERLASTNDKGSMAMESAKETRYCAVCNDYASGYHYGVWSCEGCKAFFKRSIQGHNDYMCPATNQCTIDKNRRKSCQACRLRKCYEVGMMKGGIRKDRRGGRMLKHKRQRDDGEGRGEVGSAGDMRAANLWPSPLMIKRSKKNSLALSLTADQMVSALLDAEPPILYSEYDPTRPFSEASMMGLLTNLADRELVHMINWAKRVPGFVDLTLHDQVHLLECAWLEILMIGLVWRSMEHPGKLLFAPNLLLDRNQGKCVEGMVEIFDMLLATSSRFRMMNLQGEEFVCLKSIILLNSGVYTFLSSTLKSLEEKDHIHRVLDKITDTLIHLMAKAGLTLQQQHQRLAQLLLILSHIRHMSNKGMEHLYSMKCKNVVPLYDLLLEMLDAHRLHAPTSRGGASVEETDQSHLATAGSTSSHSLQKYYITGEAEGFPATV
His6-ERα298-554 Y537S mutant (ERα ligand-binding domain), sequence (P03372 298-554 Y537S): as the sequence (P03372 298-554) above, with Y240S counted along it

| Structure (SMILES) | IC50 [1, 7] | IC50 ([2]; Homo sapiens, MCF7, 168 h) | IC50 ([3]; Homo sapiens, MCF7, 168 h) | IC50 [4, 7] | IC50 ([5]; Homo sapiens, MCF7, 168 h) | IC50 [6, 7] | DC50 (ERα in MCF7 cells) | % Degradation at 3 μM (ERα in MCF7 cells) | IC50 [2] | IC50 [3] | IC50 [5] | IC50 ([1]; protocol with 3 nM estradiol) | IC50 ([4]; protocol with 3 nM estradiol) | IC50 ([6]; protocol with 3 nM estradiol) |
| --- | --- | --- | --- | --- | --- | --- | --- | --- | --- | --- | --- | --- | --- | --- |
| Oc1ccc2c(c1F)CCCC(c1ccc(OC(F)F)c(F)c1)=C2c1ccc(O[C@H]2CCN(CCCF)C2)nc1 [Example 249, 6-[4-(difluoromethoxy)-3-fluoro-phenyl]-1-fluoro-5-[6-[(3S)-1-(3-fluoropropyl)pyrrolidin-3-yl]oxy-3-pyridyl]-8,9-dihydro-7H-benzo[7]annulen-2-ol] | 14 nM | 0.6 nM | 4 nM | 24 nM | 0.3 nM | 1 nM | 0.3 nM | 87% | – | – | – | – | – | – |
| CCOc1ccc(C2=C(c3ccc(O[C@H]4CCN(CCCF)C4)cc3)c3ccc(O)cc3OCC2)c(Cl)c1 [Example 153, 4-(2-chloro-4-ethoxy-phenyl)-5-[4-[(3S)-1-(3-fluoropropyl)pyrrolidin-3-yl]oxyphenyl]-2,3-dihydro-1-benzoxepin-8-ol] | 86 nM | 0.7 nM | 3 nM | 117 nM | 0.3 nM | 6 nM | 0.2 nM | 91% | – | – | – | – | – | – |
| Cc1cc(C2=C(c3ccc(O[C@H]4CCN(CCCF)C4)nc3)c3ccc(O)c(F)c3CCC2)ccc1Cl [Example 250, 6-(4-chloro-3-methyl-phenyl)-1-fluoro-5-[6-[(3S)-1-(3-fluoropropyl)pyrrolidin-3-yl]oxy-3-pyridyl]-8,9-dihydro-7H-benzo[7]annulen-2-ol] | 70 nM | 0.3 nM | 4 nM | 113 nM | 0.3 nM | 7 nM | 0.5 nM | 87% | – | – | – | – | – | – |
| CC(C)(C)c1ccc(C2=C(c3ccc(O[C@H]4CCN(CCCF)C4)cc3)c3ccc(O)cc3SC2)c(F)n1 [Example 75, 3-(6-tert-butyl-2-fluoro-3-pyridyl)-4-[4-[(3S)-1-(3-fluoropropyl)pyrrolidin-3-yl]oxyphenyl]-2H-thiochromen-7-ol] | > 4000 nM | 74 nM | > 999 nM | > 4000 nM | 63 nM | 2490 nM | 27 nM | 92% | – | – | – | – | – | – |
| Cc1ccc(C2=C(c3ccc(O[C@H]4CCN(CCCF)C4)cc3)c3ccc(O)cc3[S+]([O-])C2)c(F)c1 (single isomer, unassigned) [Example 71] | > 4000 nM | – | – | > 4000 nM | – | 2740 nM | 11 nM | 75% | 88 nM | 414 nM | 12 nM | – | – | – |
| Oc1ccc2c(c1)SCCC(c1ccc(F)nc1F)=C2c1ccc(O[C@H]2CCN(CCCF)C2)cc1 [Example 215, 4-(2,6-difluoro-3-pyridyl)-5-[4-[(3S)-1-(3-fluoropropyl)pyrrolidin-3-yl]oxyphenyl]-2,3-dihydro-1-benzothiepin-8-ol] | 86 nM | 0.2 nM | 3 nM | 190 nM | 0.1 nM | 8 nM | 0.2 nM | 93% | – | – | – | – | – | – |
| CCOc1ccc(C2=C(c3cnc(O[C@H]4CCN(CCCF)C4)nc3)c3ccc(O)cc3CCC2)c(F)c1F [Example 246, 6-(4-ethoxy-2,3-difluoro-phenyl)-5-[2-[(3S)-1-(3-fluoropropyl)pyrrolidin-3-yl]oxypyrimidin-5-yl]-8,9-dihydro-7H-benzo[7]annulen-2-ol] | 26 nM | 0.4 nM | 7 nM | 42 nM | 0.4 nM | 2 nM | 0.5 nM | 82% | – | – | – | – | – | – |
| Oc1ccc2c(c1)SCC(c1ccc(OC(F)(F)F)cc1F)=C2c1ccc(O[C@H]2CCN(CCCF)C2)cc1 [Example 37, 4-[4-[(3S)-1-(3-fluoropropyl)pyrrolidin-3-yl]oxyphenyl]-3-[2-fluoro-4-(trifluoromethoxy)phenyl]-2H-thiochromen-7-ol] | – | 0.6 nM | 4 nM | – | 0.6 nM | – | 3 nM | 83% | – | – | – | 475 nM | 745 nM | 41 nM |
| Oc1ccc2c(c1)SCCC(c1cccc3[nH]ccc13)=C2c1ccc(O[C@H]2CCN(CCCF)C2)cc1 [Example 178, 5-[4-[(3S)-1-(3-fluoropropyl)pyrrolidin-3-yl]oxyphenyl]-4-(1H-indol-4-yl)-2,3-dihydro-1-benzothiepin-8-ol] | – | 2 nM | 16 nM | – | 0.5 nM | – | 0.4 nM | 87% | – | – | – | 7 nM | 10 nM | 2 nM |
| Oc1cc2c(cc1F)C(c1ccc(O[C@H]3CCN(CCCF)C3)cc1)=C(c1ccc3c(c1)CCN3)CCO2 [Example 142, 7-fluoro-5-[4-[(3S)-1-(3-fluoropropyl)pyrrolidin-3-yl]oxyphenyl]-4-indolin-5-yl-2,3-dihydro-1-benzoxepin-8-ol] | – | 34 nM | 154 nM | – | 8 nM | – | 2 nM | 83% | – | – | – | 1150 nM | 1820 nM | 41 nM |
| CC(C)(C)c1ccc(C2=C(c3ccc(N[C@H]4CCN(CCCF)C4)cc3)c3ccc(O)cc3CCC2)cc1 [Example 89, 6-(4-tert-butylphenyl)-5-[4-[[(3S)-1-(3-fluoropropyl)pyrrolidin-3-yl]amino]phenyl]-8,9-dihydro-7H-benzo[7]annulen-2-ol] | 423 nM | 1 nM | 5 nM | 726 nM | 0.4 nM | 27 nM | 1 nM | 91% | – | – | – | – | – | – |
| Cc1ccc(C2=C(c3ccc(O[C@H]4CCN(CCCF)C4)cc3)c3ccc(O)cc3SC2)c(F)c1F [Example 64, 3-(2,3-difluoro-4-methyl-phenyl)-4-[4-[(3S)-1-(3-fluoropropyl)pyrrolidin-3-yl]oxyphenyl]-2H-thiochromen-7-ol] | 204 nM | 0.7 nM | 5 nM | 492 nM | 1 nM | 24 nM | 0.2 nM | 81% | – | – | – | – | – | – |
| COc1ccc(C2=C(c3ccc(O[C@H]4CCN(CCCF)C4)cc3)c3ccc(O)cc3SC2)c(F)c1 [Example 24, 3-(2-fluoro-4-methoxy-phenyl)-4-[4-[(3S)-1-(3-fluoropropyl)pyrrolidin-3-yl]oxyphenyl]-2H-thiochromen-7-ol] | 44 nM | 0.9 nM | 6 nM | 80 nM | 0.3 nM | 5 nM | 0.2 nM | 91% | – | – | – | – | – | – |
| Oc1ccc2c(c1)OCCC(c1ccc3c(c1)NCC3)=C2c1ccc(O[C@H]2CCN(CCCF)C2)cc1 [Example 116, 5-[4-[(3S)-1-(3-fluoropropyl)pyrrolidin-3-yl]oxyphenyl]-4-indolin-6-yl-2,3-dihydro-1-benzoxepin-8-ol] | – | 17 nM | 150 nM | – | 6 nM | – | 2 nM | 88% | – | – | – | 86 nM | 120 nM | 31 nM |
| CCOc1nccc(C2=C(c3ccc(O[C@H]4CCN(CCCF)C4)cc3)c3ccc(O)cc3SC2)c1F [Example 69, 3-(2-ethoxy-3-fluoro-4-pyridyl)-4-[4-[(3S)-1-(3-fluoropropyl)pyrrolidin-3-yl]oxyphenyl]-2H-thiochromen-7-ol] | > 4000 nM | 0.2 nM | 0.8 nM | > 4000 nM | 0.2 nM | 1570 nM | 0.2 nM | 81% | – | – | – | – | – | – |
| Cc1ccc(C2=C(c3ccc(O[C@H]4CCN(CCCF)C4)cc3)c3ccc(O)cc3SCC2)c(F)n1 [Example 192, 4-(2-fluoro-6-methyl-3-pyridyl)-5-[4-[(3S)-1-(3-fluoropropyl)pyrrolidin-3-yl]oxyphenyl]-2,3-dihydro-1-benzothiepin-8-ol] | 109 nM | 0.9 nM | 5 nM | 205 nM | 0.3 nM | 9 nM | 0.4 nM | 91% | – | – | – | – | – | – |
